The values below come from publication doi:10.1101/2024.03.22.586364, “Development of quantitative high-throughput screening assays to identify, validate, and optimize small-molecule stabilizers of misfolded β-glucocerebrosidase with therapeutic potential for Gaucher disease and Parkinson’s disease” (bioRxiv, 2024).

As a reminder, the Kd is the concentration at which binding is half-saturated. Broadly, the IC50 is the concentration needed to halve the response being measured.

Substitutions are numbered along the chain they refer to. Where a name gives a salt, the structure may show the parent alone.

Assay [1] has as its target T1, recombinant GCase-WT (Homo sapiens, UniProt P04062).
T1 construct: purchased Bio-Techne 7410-GHB-020
T1 sequence (P04062 40-536): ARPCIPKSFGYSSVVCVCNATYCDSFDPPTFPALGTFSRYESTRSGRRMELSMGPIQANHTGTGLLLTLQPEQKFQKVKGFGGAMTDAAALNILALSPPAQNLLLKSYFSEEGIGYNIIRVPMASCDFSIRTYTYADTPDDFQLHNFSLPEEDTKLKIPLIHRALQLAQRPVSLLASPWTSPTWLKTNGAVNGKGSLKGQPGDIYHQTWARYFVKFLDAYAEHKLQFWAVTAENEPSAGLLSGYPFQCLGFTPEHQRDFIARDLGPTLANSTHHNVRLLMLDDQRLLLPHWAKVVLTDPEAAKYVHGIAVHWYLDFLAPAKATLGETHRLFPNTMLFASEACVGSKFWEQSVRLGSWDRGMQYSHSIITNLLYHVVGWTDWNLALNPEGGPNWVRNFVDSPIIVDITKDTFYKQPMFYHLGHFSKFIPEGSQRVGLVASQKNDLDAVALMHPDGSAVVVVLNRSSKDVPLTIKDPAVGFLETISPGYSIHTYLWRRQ
The assay can be described thus: Microscale thermophoresis (MST) target engagement. It counts as binding. Conditions: 50 mM sodium citrate buffer (pH 5.5); n = 2; read-out: dissociation constant (Kd). The procedure: Microscale thermophoresis (MST) experiments were performed using the Monolith NT.Automated instrument (NanoTemper Technologies). […] The recombinant GCase was further diluted with assay buffer (50 mM sodium citrate, pH 5.5) to 0.160 mg/mL and incubated (RT) for 30 min with 50 nM RED-tris-NTA 2nd Generation dye from the Monolith His-Tag Labeling Kit (Cat.#MO-L018; NanoTemper Technologies). The labeling reaction mixture was centrifuged for 10 min at 4°C and 15,000 × g to remove protein aggregates, after which the supernatant was diluted 2.5x with assay buffer. For each compound measured, a 12-point, 2x titration series of compound in DMSO was prepared; 1 μL of compound in DMSO from each point in the titration series was combined with 9 μL of assay buffer and 10 μL of labeled GCase in a 384-well plate, which was left standing for 30 min (RT). The resultant final concentration of labeled GCase was ~570 nM (in 5% DMSO).

Assay [2] has as its target T2, HiBiT-GCase-N370S (Homo sapiens, UniProt P04062, N409S).
T2 construct: expressed in transfected cells; host or cells: GBA1-KO H4 human neuroglioma cells; transgene stably integrated at the CLYBL safe-harbor locus by TALENs; CAG promoter
T2 sequence (P04062 40-536 N409S): T1 sequence (P04062 40-536) with N370S
Briefly: HiBiT-GCase-N370S lytic luminescence assay, H4 reporter cells. It counts as cell-based. To be noted: 24 h treatment, 1536-well format. The text has this:
(§1) Figure 1. HiBiT-tagged GCase retains normal trafficking and function, enabling a high-throughput screening assay measuring cellular GCase levels. (A) GCase was labeled with a small (1.3 kDa), pro-luminescent, N-terminal HiBiT peptide tag immediately following the signal peptide (SP) sequence. (B) This HiBiT-GCase reporter (WT, N370S, or L444P) was engineered into a human Citrate Lyase Beta-Like (CLYBL) intragenic safe-harbor locus within a GBA1-KO H4 cell background using TALEN-enhanced integrative gene transfer. (C) Co-localization of GCase (green) with lysosomal marker LAMP1 (magenta) was determined by immunofluorescent staining. […] (G) GCase protein levels were quantitated by AlphaLISA (Amplified Luminescent Proximity Homogeneous Assay) utilizing a sandwich configuration of two monoclonal antibodies recognizing non-overlapping epitopes, hGCase-1/23 (which was biotinylated and associated with a streptavidin-coated donor bead) and hGCase-1/17 (which was directly conjugated to an acceptor bead). […] (H) GCase activity was measured in cell lysates using the fluorogenic substrate 4-methylumbelliferyl-β-D-glucopyranoside. Relative GCase activity was calculated by adjusting for protein concentration, correcting for GBA1-KO H4 cell background, and normalizing to GBA1-WT signal. […]
A general note: HiBiT is a short tag that completes a luciferase, so light tracks the accessible tagged protein.

The target in assay [3] is T3, HiBiT-GCase-WT (Homo sapiens, UniProt P04062).
T3 construct: expressed in transfected cells; host or cells: GBA1-KO H4 human neuroglioma cells; transgene stably integrated at the CLYBL safe-harbor locus by TALENs; CAG promoter
T3 sequence (P04062 40-536): T1 sequence (P04062 40-536)
Briefly: HiBiT-GCase-WT lytic luminescence assay, H4 reporter cells. To be noted: 24 h treatment, 1536-well format. The assay is classed as cell-based.
Source text: as §1

The subject of assay [4] is integrated stress response (ISR). The arrangement: method as in PMID 23741617. Conditions: read-out: IC50 (potency with which ISRIB modifies its target); cited from earlier work.

For the compound `O=C(COc1ccccc1C(=O)Nc1ccc(I)cc1)Nc1ccc(I)cc1` [NCGC00241326-01, N-(4-iodophenyl)-2-(2-((4-iodophenyl)amino)-2-oxoethoxy)benzamide], the Kd in assay [1] was determined as 3.75 µM. For `Nc1c(Br)cc(Br)cc1CN[C@H]1CC[C@H](O)CC1` [NCGC00371077-02, Ambroxol HCl], the “effect on HiBiT-GCase-N370S levels (in words)” value in assay [2] is “increased HiBiT-GCase levels in all three lines”. In assay [3], the “effect on HiBiT-GCase-WT levels (in words)” value was “increased HiBiT-GCase levels in all three lines”. In the case of `C#Cc1ccc(NC(=O)c2cnn3c(C)cc(C)nc23)cc1` [NCGC758], the “effect on HiBiT-GCase-N370S levels (in words)” value in assay [2] is “inactive in all three lines”. Besides, the “effect on HiBiT-GCase-WT levels (in words)” value in assay [3] is “inactive in all three lines”. Turning to `O=C(COc1ccc(Cl)cc1)N[C@H]1CC[C@H](NC(=O)COc2ccc(Cl)cc2)CC1` [NCGC00384174-12, trans-ISRIB], the IC50 in assay [4] was 0.005 µM.
